Patent US12214092B2, “Systems and methods for treating biological fluids” (Cerus Corporation, priority 2017, dated 2025)

Tests used:
[1] = tested on: feline calicivirus (FCV); experiment: Photochemical inactivation of FCV in platelets (35% plasma/65% PAS) with amotosalen and 340 nm UVA, plaque assay; type: cell-based
[2] = Plasma parameters pre- and post-illumination, whole-blood derived plasma, 50 μM amotosalen, ~6.4 J/cm^2
Source text: This pool and split format was repeated four times to generate four replicates.

[3] = Residual amotosalen after second illumination (two-wavelength treatment); type: physicochemical; details: 15 μM amotosalen, ~3 J/cm^2 each
Procedure: Additionally, any two or more wavelengths of narrow bandwidth light are evaluated in combination, such as for example, photochemical treatment of a biological fluid using amotosalen and ultraviolet light of a first peak wavelength and ultraviolet light of a second peak wavelength, sequentially or concurrently. More specifically, in one example pathogen inactivation of E. coli (Gram negative) and S. epidermidis (Gram positive) bacteria was evaluated using amotosalen and the device with LEDs of wavelengths described in Example 8. […] The spiked plasma units were divided into control (no amotosalen+UV light) and treatment (with amotosalen) conditions, with amotosalen used at 15 μM concentration. The units were aliquoted into six-well plates (5 mL/well) for illumination. Pre-illumination samples were taken and control bacterial titers determined using standard colony forming unit assay. […] Data for pre-illumination titers, post-first illumination titer, post-second illumination titer, and post-treatment (after second illumination) residual amotosalen (S-59) are shown in the following Tables 40-41.

## Cc1oc2c(C)c3oc(=O)cc(C)c3cc2c1COCCN [S-59, 3-(2-aminoethoxymethyl)-2,5,9-trimethylfuro[3,2-g]chromen-7-one]
[1]; 15 μM, 4 hr incubation, 340 nm ~3 J/cm^2
  Log inactivation: 2.7 log PFU/mL
[1]; 15 μM, 8 hr incubation, 340 nm ~3 J/cm^2
  Log inactivation: 4.2 log PFU/mL
[1]; 15 μM, 8 hr, 340 nm ~3 J/cm^2 Top Only
  Log inactivation: 4.1 log PFU/mL
[1]; 15 μM, 8 hr, 340 nm ~3 J/cm^2 Top/Bottom
  Log inactivation: 3.9 log PFU/mL
[1]; 15 μM, 24 hr incubation, 340 nm ~3 J/cm^2
  Log inactivation: >5.6 log PFU/mL
[1]; 15 μM, 24 hr, 340 nm ~3 J/cm^2 Top Only
  Log inactivation: >6.3 log PFU/mL
[1]; 15 μM, 24 hr, 340 nm ~3 J/cm^2 Top/Bottom
  Log inactivation: >6.3 log PFU/mL
[1]; 30 μM, 4 hr incubation, 340 nm ~3 J/cm^2
  Log inactivation: 4.0 log PFU/mL
[1]; 30 μM, 8 hr incubation, 340 nm ~3 J/cm^2
  Log inactivation: >5.6 log PFU/mL
[1]; 30 μM, 8 hr, 340 nm ~3 J/cm^2 Top Only
  Log inactivation: >6.3 log PFU/mL
[1]; 30 μM, 8 hr, 340 nm ~3 J/cm^2 Top/Bottom
  Log inactivation: 6.3 log PFU/mL
[1]; 30 μM, 24 hr incubation, 340 nm ~3 J/cm^2
  Log inactivation: >5.6 log PFU/mL
[1]; 30 μM, 24 hr, 340 nm ~3 J/cm^2 Top Only
  Log inactivation: >6.3 log PFU/mL
[1]; 30 μM, 24 hr, 340 nm ~3 J/cm^2 Top/Bottom
  Log inactivation: >6.3 log PFU/mL
[1]; 90 μM, 4 hr incubation, 340 nm ~3 J/cm^2
  Log inactivation: >5.6 log PFU/mL
[1]; 90 μM, 8 hr incubation, 340 nm ~3 J/cm^2
  Log inactivation: >5.6 log PFU/mL
[1]; 90 μM, 24 hr incubation, 340 nm ~3 J/cm^2
  Log inactivation: >5.6 log PFU/mL
[1]; 150 μM, 0 hr incubation, 340 nm, more than twice ~3 J/cm^2
  Log inactivation: 2.5 log PFU/mL
[1]; 150 μM, 0 hr, 340 nm Top Only (1-sided)
  Log inactivation: 4.6 log PFU/mL
[1]; 150 μM, 0 hr, 340 nm Top/Bottom (2-sided)
  Log inactivation: 3.5 log PFU/mL
[2]; 340 nm, Post-UVA
  Factor II: 84.00 IU/dL
  Factor V: 88.83 IU/dL
  Factor VIII: 127.18 IU/dL
  Factor X: 84.68 IU/dL
  Factor XI: 73.93 IU/dL
  Fibrinogen: 259.75 mg/dL
  PT: 12.03 s
  Protein C: 122.33 IU/dL
  Protein S: 118.03 IU/dL
  Total Protein: 72.43 mg/mL
  aPTT: 33.95 s
  pCO2 @ 37° C.: 66.75 mmHg
  pH @ 37° C.: 7.20
  pO2 @ 37° C.: 42.88 mmHg
[2]; 340 nm, Pre-UVA
  Factor II: 93.43 IU/dL
  Factor V: 97.08 IU/dL
  Factor VIII: 165.50 IU/dL
  Factor X: 96.68 IU/dL
  Factor XI: 85.65 IU/dL
  Fibrinogen: 290.00 mg/dL
  PT: 11.68 s
  Protein C: 133.90 IU/dL
  Protein S: 119.00 IU/dL
  Total Protein: 72.13 mg/mL
  aPTT: 31.15 s
  pCO2 @ 37° C.: 67.38 mmHg
  pH @ 37° C.: 7.19
  pO2 @ 37° C.: 131.80 mmHg
[2]; INT-100, Post-UVA
  Factor II: 110.93 IU/dL
  Factor V: 90.25 IU/dL
  Factor VIII: 108.85 IU/dL
  Factor X: 84.53 IU/dL
  Factor XI: 76.63 IU/dL
  Fibrinogen: 261.50 mg/dL
  PT: 12.28 s
  Protein C: 109.30 IU/dL
  Protein S: 121.80 IU/dL
  Total Protein: 70.35 mg/mL
  aPTT: 33.98 s
  pCO2 @ 37° C.: 60.68 mmHg
  pH @ 37° C.: 7.24
  pO2 @ 37° C.: 41.55 mmHg
[2]; INT-100, Pre-UVA
  Factor II: 91.45 IU/dL
  Factor V: 98.55 IU/dL
  Factor VIII: 154.25 IU/dL
  Factor X: 92.40 IU/dL
  Factor XI: 89.55 IU/dL
  Fibrinogen: 278.75 mg/dL
  PT: 11.48 s
  Protein C: 98.55 IU/dL
  Protein S: 111.88 IU/dL
  Total Protein: 80.18 mg/mL
  aPTT: 30.35 s
  pCO2 @ 37° C.: 69.20 mmHg
  pH @ 37° C.: 7.22
  pO2 @ 37° C.: 141.95 mmHg
[3]; E. coli plasma, UV 1 265 nm then UV 2 325 nm
  S-59: 4.76 µM
[3]; E. coli plasma, UV 1 265 nm then UV 2 340 nm
  S-59: 3.89 µM
[3]; E. coli plasma, UV 1 265 nm then UV 2 365 nm
  S-59: 8.07 µM
[3]; E. coli plasma, UV 1 280 nm then UV 2 325 nm
  S-59: 4.44 µM
[3]; E. coli plasma, UV 1 280 nm then UV 2 340 nm
  S-59: 3.62 µM
[3]; E. coli plasma, UV 1 280 nm then UV 2 365 nm
  S-59: 7.96 µM
[3]; E. coli plasma, UV 1 325 nm then UV 2 265 nm
  S-59: 4.88 µM
[3]; E. coli plasma, UV 1 325 nm then UV 2 280 nm
  S-59: 4.66 µM
[3]; E. coli plasma, UV 1 340 nm then UV 2 265 nm
  S-59: 4.43 µM
[3]; E. coli plasma, UV 1 340 nm then UV 2 280 nm
  S-59: 4.46 µM
[3]; E. coli plasma, UV 1 365 nm then UV 2 265 nm
  S-59: 8.13 µM
[3]; E. coli plasma, UV 1 365 nm then UV 2 280 nm
  S-59: 8.00 µM
[3]; S. epidermidis plasma, Light 1 265 nm then Light 2 325 nm
  S-59: 4.82 µM
[3]; S. epidermidis plasma, Light 1 265 nm then Light 2 340 nm
  S-59: 3.93 µM
[3]; S. epidermidis plasma, Light 1 265 nm then Light 2 365 nm
  S-59: 8.17 µM
[3]; S. epidermidis plasma, Light 1 280 nm then Light 2 325 nm
  S-59: 4.50 µM
[3]; S. epidermidis plasma, Light 1 280 nm then Light 2 340 nm
  S-59: 3.77 µM
[3]; S. epidermidis plasma, Light 1 280 nm then Light 2 365 nm
  S-59: 8.01 µM
[3]; S. epidermidis plasma, Light 1 325 nm then Light 2 265 nm
  S-59: 4.92 µM
[3]; S. epidermidis plasma, Light 1 325 nm then Light 2 280 nm
  S-59: 4.63 µM
[3]; S. epidermidis plasma, Light 1 340 nm then Light 2 265 nm
  S-59: 4.47 µM
[3]; S. epidermidis plasma, Light 1 340 nm then Light 2 280 nm
  S-59: 4.46 µM
[3]; S. epidermidis plasma, Light 1 365 nm then Light 2 265 nm
  S-59: 8.39 µM
[3]; S. epidermidis plasma, Light 1 365 nm then Light 2 280 nm
  S-59: 8.07 µM
